{"source": "ChEMBL document CHEMBL1144434", "about": "“Structure-activity relationships within a series of caspase inhibitors. Part 2: Heterocyclic warheads” (Bioorg Med Chem Lett, 2005)", "note": "pIC50: −log10 of the molar value.", "data": [{"target": "T1, Caspase-1 (Mus musculus) (UniProt P29452)", "T1 sequence (whole entry)": "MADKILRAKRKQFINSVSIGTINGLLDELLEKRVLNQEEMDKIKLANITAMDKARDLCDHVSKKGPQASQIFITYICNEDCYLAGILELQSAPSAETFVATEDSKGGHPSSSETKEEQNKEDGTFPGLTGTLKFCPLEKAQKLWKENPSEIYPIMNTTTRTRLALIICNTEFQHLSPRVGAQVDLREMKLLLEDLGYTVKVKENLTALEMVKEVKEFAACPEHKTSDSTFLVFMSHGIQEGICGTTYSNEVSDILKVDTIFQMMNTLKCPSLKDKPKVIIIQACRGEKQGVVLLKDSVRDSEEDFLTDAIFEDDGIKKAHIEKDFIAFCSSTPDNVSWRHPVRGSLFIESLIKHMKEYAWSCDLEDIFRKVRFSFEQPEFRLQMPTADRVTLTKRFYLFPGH", "test": "Binding affinity against mouse Caspase-1", "settings": "not given", "values": [{"smiles": "CC(C)[C@H](NC(=O)COc1cccc2ccccc12)C(=O)N[C@@H](CC(=O)O)C(=O)CSc1nnnn1-c1ccccc1", "k3/ki": "400 1/m/s"}, {"smiles": "CC(C)[C@H](NC(=O)COc1cccc2ccccc12)C(=O)N[C@@H](CC(=O)O)C(=O)CSc1nc[nH]n1", "k3/ki": "115 1/m/s"}, {"smiles": "Cc1cc(OCC(=O)[C@H](CC(=O)O)NC(=O)[C@@H](NC(=O)COc2cccc3ccccc23)C(C)C)nc(C)n1", "k3/ki": "1330 1/m/s"}, {"smiles": "CC(C)c1cc(OCC(=O)[C@H](CC(=O)O)NC(=O)[C@@H](NC(=O)COc2cccc3ccccc23)C(C)C)no1", "k3/ki": "3670 1/m/s"}, {"smiles": "CC(C)[C@H](NC(=O)COc1cccc2ccccc12)C(=O)N[C@@H](CC(=O)O)C(=O)COc1[nH]cnc2nncc1-2", "k3/ki": "273 1/m/s"}, {"smiles": "CC(C)[C@H](NC(=O)COc1cccc2ccccc12)C(=O)N[C@@H](CC(=O)O)C(=O)CSc1nc(-c2ccccc2)c(-c2ccccc2)[nH]1", "k3/ki": "199 1/m/s"}, {"smiles": "CC(C)[C@H](NC(=O)COc1cccc2ccccc12)C(=O)N[C@@H](CC(=O)O)C(=O)COc1cccc2cccnc12", "k3/ki": "1260 1/m/s"}, {"smiles": "CC(C)[C@H](NC(=O)COc1cccc2ccccc12)C(=O)N[C@@H](CC(=O)O)C(=O)CSc1nnnn1C", "k3/ki": "3630 1/m/s"}, {"smiles": "CC(C)[C@H](NC(=O)COc1cccc2ccccc12)C(=O)N[C@@H](CC(=O)O)C(=O)CSc1nc2ccccc2[nH]1", "k3/ki": "168 1/m/s"}]}, {"target": "T2, Caspase-6 (Homo sapiens) (UniProt P55212)", "T2 sequence (whole entry)": "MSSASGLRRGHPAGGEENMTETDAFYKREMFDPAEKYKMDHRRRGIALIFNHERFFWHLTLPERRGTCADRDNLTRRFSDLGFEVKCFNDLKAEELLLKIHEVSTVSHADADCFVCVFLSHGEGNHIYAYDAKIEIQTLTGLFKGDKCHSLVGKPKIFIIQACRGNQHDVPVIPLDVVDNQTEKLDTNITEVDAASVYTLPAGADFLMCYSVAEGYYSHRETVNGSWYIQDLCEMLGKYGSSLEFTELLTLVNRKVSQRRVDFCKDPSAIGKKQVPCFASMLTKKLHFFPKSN", "test": "Binding affinity against Caspase-6", "settings": "not given", "values": [{"smiles": "CC(C)[C@H](NC(=O)COc1cccc2ccccc12)C(=O)N[C@@H](CC(=O)O)C(=O)CSc1nnnn1-c1ccccc1", "k3/ki": "224 1/m/s"}, {"smiles": "CC(C)[C@H](NC(=O)COc1cccc2ccccc12)C(=O)N[C@@H](CC(=O)O)C(=O)CSc1nc[nH]n1", "k3/ki": "17 1/m/s"}, {"smiles": "Cc1cc(OCC(=O)[C@H](CC(=O)O)NC(=O)[C@@H](NC(=O)COc2cccc3ccccc23)C(C)C)nc(C)n1", "k3/ki": "903 1/m/s"}, {"smiles": "CC(C)c1cc(OCC(=O)[C@H](CC(=O)O)NC(=O)[C@@H](NC(=O)COc2cccc3ccccc23)C(C)C)no1", "k3/ki": "220 1/m/s"}, {"smiles": "CC(C)[C@H](NC(=O)COc1cccc2ccccc12)C(=O)N[C@@H](CC(=O)O)C(=O)COc1[nH]cnc2nncc1-2", "k3/ki": "143 1/m/s"}, {"smiles": "CC(C)[C@H](NC(=O)COc1cccc2ccccc12)C(=O)N[C@@H](CC(=O)O)C(=O)CSc1nc(-c2ccccc2)c(-c2ccccc2)[nH]1", "k3/ki": "22 1/m/s"}, {"smiles": "CC(C)[C@H](NC(=O)COc1cccc2ccccc12)C(=O)N[C@@H](CC(=O)O)C(=O)COc1cccc2cccnc12", "k3/ki": "140 1/m/s"}, {"smiles": "CC(C)[C@H](NC(=O)COc1cccc2ccccc12)C(=O)N[C@@H](CC(=O)O)C(=O)CSc1nnnn1C", "k3/ki": "2150 1/m/s"}, {"smiles": "CC(C)[C@H](NC(=O)COc1cccc2ccccc12)C(=O)N[C@@H](CC(=O)O)C(=O)CSc1nc2ccccc2[nH]1", "k3/ki": "25 1/m/s"}]}, {"target": "T3, Caspase-3 (Homo sapiens) (UniProt P42574)", "T3 sequence (whole entry)": "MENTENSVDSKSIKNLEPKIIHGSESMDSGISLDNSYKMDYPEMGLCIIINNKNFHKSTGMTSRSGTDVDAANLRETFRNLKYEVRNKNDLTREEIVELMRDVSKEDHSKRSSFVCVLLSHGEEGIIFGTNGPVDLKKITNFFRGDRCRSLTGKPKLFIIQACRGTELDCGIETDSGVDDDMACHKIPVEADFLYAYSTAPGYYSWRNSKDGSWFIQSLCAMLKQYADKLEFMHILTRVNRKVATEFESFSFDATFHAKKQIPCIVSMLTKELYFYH", "test": "Binding affinity against Caspase-3", "settings": "not given", "values": [{"smiles": "CC(C)[C@H](NC(=O)COc1cccc2ccccc12)C(=O)N[C@@H](CC(=O)O)C(=O)CSc1nnnn1-c1ccccc1", "k3/ki": "19200 1/m/s"}, {"smiles": "CC(C)[C@H](NC(=O)COc1cccc2ccccc12)C(=O)N[C@@H](CC(=O)O)C(=O)CSc1nc[nH]n1", "k3/ki": "401 1/m/s"}, {"smiles": "Cc1cc(OCC(=O)[C@H](CC(=O)O)NC(=O)[C@@H](NC(=O)COc2cccc3ccccc23)C(C)C)nc(C)n1", "k3/ki": "7480 1/m/s"}, {"smiles": "CC(C)c1cc(OCC(=O)[C@H](CC(=O)O)NC(=O)[C@@H](NC(=O)COc2cccc3ccccc23)C(C)C)no1", "k3/ki": "21800 1/m/s"}, {"smiles": "CC(C)[C@H](NC(=O)COc1cccc2ccccc12)C(=O)N[C@@H](CC(=O)O)C(=O)COc1[nH]cnc2nncc1-2", "k3/ki": "906 1/m/s"}, {"smiles": "CC(C)[C@H](NC(=O)COc1cccc2ccccc12)C(=O)N[C@@H](CC(=O)O)C(=O)CSc1nc(-c2ccccc2)c(-c2ccccc2)[nH]1", "k3/ki": "1390 1/m/s"}, {"smiles": "CC(C)[C@H](NC(=O)COc1cccc2ccccc12)C(=O)N[C@@H](CC(=O)O)C(=O)COc1cccc2cccnc12", "k3/ki": "4360 1/m/s"}, {"smiles": "CC(C)[C@H](NC(=O)COc1cccc2ccccc12)C(=O)N[C@@H](CC(=O)O)C(=O)CSc1nnnn1C", "k3/ki": "34400 1/m/s"}, {"smiles": "CC(C)[C@H](NC(=O)COc1cccc2ccccc12)C(=O)N[C@@H](CC(=O)O)C(=O)CSc1nc2ccccc2[nH]1", "k3/ki": "1770 1/m/s"}]}, {"system": "Jurkat", "test": "Inhibitory concentration for cellular activity in jurkat assay", "format": "functional, cell-based", "settings": "Homo sapiens", "values": [{"smiles": "CC(C)[C@H](NC(=O)COc1cccc2ccccc12)C(=O)N[C@@H](CC(=O)O)C(=O)CSc1nnnn1-c1ccccc1", "pIC50": 3.82}, {"smiles": "CC(C)[C@H](NC(=O)COc1cccc2ccccc12)C(=O)N[C@@H](CC(=O)O)C(=O)CSc1nc[nH]n1", "pIC50": "< 3.70"}, {"smiles": "Cc1cc(OCC(=O)[C@H](CC(=O)O)NC(=O)[C@@H](NC(=O)COc2cccc3ccccc23)C(C)C)nc(C)n1", "pIC50": "< 3.70"}, {"smiles": "CC(C)c1cc(OCC(=O)[C@H](CC(=O)O)NC(=O)[C@@H](NC(=O)COc2cccc3ccccc23)C(C)C)no1", "pIC50": "< 3.70"}, {"smiles": "CC(C)[C@H](NC(=O)COc1cccc2ccccc12)C(=O)N[C@@H](CC(=O)O)C(=O)COc1[nH]cnc2nncc1-2", "pIC50": 3.79}, {"smiles": "CC(C)[C@H](NC(=O)COc1cccc2ccccc12)C(=O)N[C@@H](CC(=O)O)C(=O)CSc1nc(-c2ccccc2)c(-c2ccccc2)[nH]1", "pIC50": "< 3.70"}, {"smiles": "CC(C)[C@H](NC(=O)COc1cccc2ccccc12)C(=O)N[C@@H](CC(=O)O)C(=O)COc1cccc2cccnc12", "pIC50": "< 3.70"}, {"smiles": "CC(C)[C@H](NC(=O)COc1cccc2ccccc12)C(=O)N[C@@H](CC(=O)O)C(=O)CSc1nnnn1C", "pIC50": "< 3.70"}, {"smiles": "CC(C)[C@H](NC(=O)COc1cccc2ccccc12)C(=O)N[C@@H](CC(=O)O)C(=O)CSc1nc2ccccc2[nH]1", "pIC50": "< 3.70"}]}, {"target": "Caspase-8 (Homo sapiens) (UniProt Q14790)", "sequence (Q14790 217-374 limits assumed)": "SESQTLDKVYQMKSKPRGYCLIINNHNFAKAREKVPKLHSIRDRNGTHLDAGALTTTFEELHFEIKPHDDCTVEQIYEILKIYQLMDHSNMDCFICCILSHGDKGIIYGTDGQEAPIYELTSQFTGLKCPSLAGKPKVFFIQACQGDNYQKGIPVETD", "sequence (Q14790 385-479 limits assumed)": "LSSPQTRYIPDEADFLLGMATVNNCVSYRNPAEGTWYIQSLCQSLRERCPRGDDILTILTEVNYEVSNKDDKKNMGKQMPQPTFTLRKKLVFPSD", "test": "Binding affinity against Caspase-8", "settings": "not given", "values": [{"smiles": "CC(C)[C@H](NC(=O)COc1cccc2ccccc12)C(=O)N[C@@H](CC(=O)O)C(=O)CSc1nnnn1-c1ccccc1", "k3/ki": "0 1/m/s"}, {"smiles": "CC(C)[C@H](NC(=O)COc1cccc2ccccc12)C(=O)N[C@@H](CC(=O)O)C(=O)CSc1nc[nH]n1", "k3/ki": "0 1/m/s"}, {"smiles": "Cc1cc(OCC(=O)[C@H](CC(=O)O)NC(=O)[C@@H](NC(=O)COc2cccc3ccccc23)C(C)C)nc(C)n1", "k3/ki": "367 1/m/s"}, {"smiles": "CC(C)c1cc(OCC(=O)[C@H](CC(=O)O)NC(=O)[C@@H](NC(=O)COc2cccc3ccccc23)C(C)C)no1", "k3/ki": "279 1/m/s"}, {"smiles": "CC(C)[C@H](NC(=O)COc1cccc2ccccc12)C(=O)N[C@@H](CC(=O)O)C(=O)COc1[nH]cnc2nncc1-2", "k3/ki": "107 1/m/s"}, {"smiles": "CC(C)[C@H](NC(=O)COc1cccc2ccccc12)C(=O)N[C@@H](CC(=O)O)C(=O)CSc1nc(-c2ccccc2)c(-c2ccccc2)[nH]1", "k3/ki": "0 1/m/s"}, {"smiles": "CC(C)[C@H](NC(=O)COc1cccc2ccccc12)C(=O)N[C@@H](CC(=O)O)C(=O)COc1cccc2cccnc12", "k3/ki": "39 1/m/s"}, {"smiles": "CC(C)[C@H](NC(=O)COc1cccc2ccccc12)C(=O)N[C@@H](CC(=O)O)C(=O)CSc1nnnn1C", "k3/ki": "6510 1/m/s"}, {"smiles": "CC(C)[C@H](NC(=O)COc1cccc2ccccc12)C(=O)N[C@@H](CC(=O)O)C(=O)CSc1nc2ccccc2[nH]1", "k3/ki": "10 1/m/s"}]}]}
